# Laboratory results from PMC6028423, “Synthetic molecular evolution of hybrid cell penetrating peptides” (Nature Communications, 2018).
# Tests used:
# [1] = test system: HeLa, RAW264.7, HepG2, and MCF-7 cells; assay: TAMRA delivery, flow cytometry and confocal microscopy, statements over several cell types or cell type not stated; assay type: cell-based; conditions: cell type and temperature not stated; threshold just above cells treated with free TAMRA; single example
# Protocol: Parent and daughter sequences lacking the PNA cargo were characterized to determine the effect of the cargo on delivery. Sequences were labeled with the fluorophore tetramethylrhodamine (TAMRA) on a C-terminal cysteine residue (PDEP-TA) and their delivery to multiple human cell types was measured by flow cytometry. To test the efficiency under stringent conditions, we used peptide concentrations of only 5 μM total containing 0.5 μM dye-labeled peptide. Peptides were incubated with HeLa, RAW264.7, HepG2, and MCF-7 cells for 30 min at 4 °C, 21 °C, or 37 °C, followed by trypsinization to detach cells for counting and to digest any externally bound peptide. […]. […]
# HeLa, RAW264.7, HCT116, HepG2, and MCF-7 cells were plated in 12-well plates at 100,000 cells/well. […] Cells were transferred to a filter-topped flow cytometry tube and analyzed on a BD LSR II flow cytometer. Cells displaying a normal morphology were gated and first analyzed for GFP fluorescence using the […] laser. GFP-negative cells were used to generate a histogram of TAMRA fluorescence, measured with the […] laser. […]
# Cells were treated as described above for the TAMRA delivery assay and immediately imaged to avoid artifacts resulting from fixation. The distribution of TAMRA and Sytox Green was analyzed using a confocal scanning Nikon Eclipse Ti2 inverted microscope using a 40× oil-immersion objective. […]
# [2] = test system: HeLa cells; assay: TAMRA delivery assay, flow cytometry; assay type: cell-based, human; conditions: tested as peptide-TA; 0.5 µM peptide-TA + 4.5 µM peptide-C, 30 min, serum-free DMEM, trypsinized, live SYTOX Green-negative cells; temperature not given
# Protocol: (§1) Parent and daughter sequences lacking the PNA cargo were characterized to determine the effect of the cargo on delivery. Sequences were labeled with the fluorophore tetramethylrhodamine (TAMRA) on a C-terminal cysteine residue (PDEP-TA) and their delivery to multiple human cell types was measured by flow cytometry. To test the efficiency under stringent conditions, we used peptide concentrations of only 5 μM total containing 0.5 μM dye-labeled peptide. Peptides were incubated with HeLa, RAW264.7, HepG2, and MCF-7 cells for 30 min at 4 °C, 21 °C, or 37 °C, followed by trypsinization to detach cells for counting and to digest any externally bound peptide. PDEP-TA conjugates are not toxic at this concentration range (Supplementary Figure 2). Flow cytometric analysis (Fig. 3 and Supplementary Figure 4) was used to count TAMRA-positive cells and to measure TAMRA intensity distributions. Confocal microscopy was used to visualize peptide distribution in cells for each cell type (Fig. 3). Time series confocal images of PDEP P17-TA incubated HeLa cells at 21 °C and 37 °C (Fig. 3a) show immediate punctate membrane association. At 37 °C, but not at 21 °C, uptake of dye in punctate structures is observed. At both temperatures, individual cells rapidly and stochastically show the appearance of TAMRA with a diffuse cytosolic distribution in addition to bright puncta. All PDEPs behave similarly and maximum intensity is reached by 30 min at all temperatures. Cell surface-bound peptide is not observed under flow cytometry conditions (Fig. 3a).
# (§2) HeLa, RAW264.7, HCT116, HepG2, and MCF-7 cells were plated in 12-well plates at 100,000 cells/well. After 24 h, cells were gently washed in PBS, topped with 500 µl of PDEP-TA solution containing 0.5 µM PDEP-TA + 4.5 µM PDEP-C in sfDMEM without phenol red, and incubated for 30 min at either 4 °C, 23 °C, or 37 °C. […] Cells were transferred to a filter-topped flow cytometry tube and analyzed on a BD LSR II flow cytometer. Cells displaying a normal morphology were gated and first analyzed for GFP fluorescence using the […] laser. GFP-negative cells were used to generate a histogram of TAMRA fluorescence, measured with the […] laser.
# (§3) Supplementary Figure 4. Flow cytometry gating strategy for Peptide-C-TA treated cells. In this example, HeLa cells were treated with 5 μM P17-C-TA for 30 minutes at 37°C. Live cells were identified by forward and side scatter. Doublets were excluded in two gating steps using SSC-H x SSC-W and FSC-H x FSC-W. Cells with compromised membranes permitting SYTOX green entry were excluded. The percent of the remaining cells testing positive for TAMRA fluorescence were defined as those with a fluorescence value ≥3000. Additionally, the mean fluorescence for all SYTOX negative cells was recorded.
# [3] = test system: MCF-7 cells; assay: TAMRA delivery assay, flow cytometry; assay type: cell-based, human; conditions: tested as peptide-TA; 0.5 µM peptide-TA + 4.5 µM peptide-C, 30 min, serum-free DMEM, trypsinized, live SYTOX Green-negative cells; temperature not given
# Protocol: as §1, §2, §3
# [4] = test system: HepG2 cells; assay: TAMRA delivery assay, flow cytometry; assay type: cell-based, human; conditions: tested as peptide-TA; 0.5 µM peptide-TA + 4.5 µM peptide-C, 30 min, serum-free DMEM, trypsinized, live SYTOX Green-negative cells; temperature not given
# Protocol: as §1, §2, §3
# [5] = test system: RAW264.7 cells; assay: TAMRA delivery assay, flow cytometry; assay type: cell-based; conditions: tested as peptide-TA; 0.5 µM peptide-TA + 4.5 µM peptide-C, 30 min, serum-free DMEM, trypsinized, live SYTOX Green-negative cells; temperature not given
# Protocol: Parent and daughter sequences lacking the PNA cargo were characterized to determine the effect of the cargo on delivery. Sequences were labeled with the fluorophore tetramethylrhodamine (TAMRA) on a C-terminal cysteine residue (PDEP-TA) and their delivery to multiple human cell types was measured by flow cytometry. To test the efficiency under stringent conditions, we used peptide concentrations of only 5 μM total containing 0.5 μM dye-labeled peptide. Peptides were incubated with HeLa, RAW264.7, HepG2, and MCF-7 cells for 30 min at 4 °C, 21 °C, or 37 °C, followed by trypsinization to detach cells for counting and to digest any externally bound peptide. PDEP-TA conjugates are not toxic at this concentration range (Supplementary Figure 2). […]
# HeLa, RAW264.7, HCT116, HepG2, and MCF-7 cells were plated in 12-well plates at 100,000 cells/well. […] Cells were transferred to a filter-topped flow cytometry tube and analyzed on a BD LSR II flow cytometer. Cells displaying a normal morphology were gated and first analyzed for GFP fluorescence using the […] laser. GFP-negative cells were used to generate a histogram of TAMRA fluorescence, measured with the 543 nM laser.
# Supplementary Figure 4. […] The percent of the remaining cells testing positive for TAMRA fluorescence were defined as those with a fluorescence value ≥3000. Additionally, the mean fluorescence for all SYTOX negative cells was recorded.
# [6] = test system: HeLa pTRE-LucIVS2-705 cells; assay: PNA705 mediated luciferase splice correction (luminescence per µg protein); assay type: cell-based, human; conditions: for PNA705 delivery efficiency in words (Fig. 2a): tested as CPP-PNA705 conjugate, up to 5 µM
# Protocol: Cells were treated for 30 min in serum-free media at 37 °C, and then allowed to recover for 24 h in complete media. […] After 24 h, cell lysates were assayed for luciferase by luminescence (Fig. 2a) and for splice corrected mRNA by quantitative PCR (Fig. 2b). To control for total cell density, lysates were also analyzed for total protein by the BCA assay.
# HeLa pTRE-LucIVS2-705 cells were seeded on flat-bottom 96-well plates at 10,000 cells per well in 200 µl complete DMEM. The following day, cells were washed in phosphate buffered saline and topped with premixed 50 µl 2× serum/phenol red-free DMEM (Gibco) + 50 µl peptide cleavage solution (ddH2O + peptide). Cells were transfected for 30 min at 37 °C with 5% CO2. The transfection solution was removed, cells were topped with 100 µl complete DMEM. The next day (24-h recovery) cells were washed in PBS. Cells were lysed in 20 µl reporter lysis buffer (Promega E4030) following the manufacturer’s protocol. A volume of 10 μl of lysate from each well was transferred to a 96-well solid black plate; 100 μl of luciferase assay reagent from the Luciferase Assay System (Promega E1500) was added, the plate was agitated for 10 s, and luminescence was measured with a BioTek Synergy 2 plate reader with injector ports. Total protein was measured with a BCA assay (described below). Data were expressed as RLU per µg protein (RLU (µg protein)^−1). During screening, positive wells were defined as those whose RLU per µg protein values exceeded the average for the plate by at least three standard deviations. Subsequent PNA705 delivery experiments were conducted as described above except that volumes were scaled for 24-well plate format.
# The remaining 10 µl of lysate from the splice correction assay was combined with 100 µl of the BCA reagents and incubated for 1–4 h at 37 °C per the manufacturer’s protocol. Absorbance at 562 nm was measured using a measured with a BioTek Synergy 2 plate reader.
# [7] = test system: HeLa pTRE-LucIVS2-705 cells; assay: qRT-PCR of correctly spliced luciferase mRNA; assay type: cell-based, human; conditions: 1.25 µM CPP-PNA705, 30-min incubation, 24-h recovery
# Protocol: To quantify splice correction at the mRNA level, we designed qRT-PCR primers to target the splice junction of the properly spliced mRNA transcript. […] We observe a >100 fold increase in properly spliced luciferase mRNA in cells treated with PDEP–PNA705 relative to control. At 5 μM, the most efficient chimera, P14-PNA705, is 30-fold better than tat, 7-fold better than penetratin, and 4-fold better than Arg9.
# HeLa pTRE-LucIVS2 cells were treated as described above with PDEP–PNA705 constructs at varying concentrations. RNA was extracted using the Direct-Zol^TM RNA purification system (Zymo Research) and reverse transcribed with the iScript cDNA synthesis kit (Bio-Rad), and mRNA splice correction was detected using PowerUp SYBR Green master mix (ThermoFisher) on an Applied Biosystems QuantStudio 6 using the following primers sets: […]
# The relative quantification of correctly spliced mRNA (90 bp amplicon) over background was calculated using the Pfaffl model.
molecule,measurement,setting,value
"CN(C)c1ccc2c(-c3ccccc3C(=O)[O-])c3ccc(N(C)C)cc3[o+]c2c1 [TAMRA, tetramethylrhodamine]","TAMRA-positive cells, example flow cytometry results (Fig. 3b)",[1],1.99%
same,HeLa %+ (TAMRA-positive cells),[2],0.0%
same,MCF-7 %+ (TAMRA-positive cells),[3],14.4%
same,HEPG2 %+ (TAMRA-positive cells),[4],0.0%
same,RAW %+ (TAMRA-positive cells),[5],6.90%
"(RXRRBR)2 [Peptide B, (RXRRBR)2, eight arginines and four linear linkers; drives delivery of splice correcting PMOs in vivo]","PNA705 delivery efficiency, head-to-head comparison in the response to reviewers","[6]; PepB-PNA705, P17-PNA705, tat-PNA705 and no treatment, same approach as in the paper",much more efficient than tat
same,PNA705 delivery efficiency in words (Fig. 2a),[6],relatively low PNA delivery efficiency
Arg9,increase in corrected mRNA over control,[7],not measurably higher than control
same,HeLa %+ (TAMRA-positive cells),[2],8.1%
same,MCF-7 %+ (TAMRA-positive cells),[3],1.6%
same,HEPG2 %+ (TAMRA-positive cells),[4],16.6%
same,PNA705 delivery efficiency in words (Fig. 2a),[6],much better than tat itself
same,RAW %+ (TAMRA-positive cells),[5],64.5%
